Here are results for two molecules from patent US20100119595A1, “Monounsaturated fatty acids and perhydrocyclopentanophenanthrene nucleus combination molecules, and their precursors, and the use of all of these as weight-loss agents” (priority 2001, published 2010).

A short description of assay [1]: Rat study of 2 hydroxyestrone oleate (Example 12). The class given is in vivo, Osborne Mendle rats. The following applies: rats, oral gavage 21 days, 10, 5, 3.33 or 2.5 micromoles/kg. As for the experimental part: Osborne Mendle rats are selected as the study subjects due to their propensity to gain fat when fed a high fat diet. An initial measurement of body weight is performed on each rat. The rats are placed individually in appropriate cages and allowed an ad libitum diet of standard rat chow and water for a 10-day period. During this 10-day period the rats are gavaged daily with 0.1 cc volume of sunflower oil to allow them to become comfortable with being handled and receiving the gavage tube (it takes about 10 days for this acclimation to occur, and is important so that the animals are not stressed by the gavage). Daily measurements include the following: • 1. Weight • 2. Weight of food consumed • 3. Spillage • 4. Water consumed, both volume and weight The rats remain confined and are denied out-of-cage activity or exercise for the duration of the experiment other than normal daily activity confined to the cage. This initial 10 day period establishes a pattern and average of weight gain, to acclimate the animals to the gavage procedure, and determine the average food and water consumption for each rat. […]
At the end of the study, rats are anesthetized then sacrificed via guillotine. […] Weight of the uterus is determined. […]

Assay [2] in a line: Human study of estrone eicosenoate as anti-obesity drug (Example 3). Particulars: humans, oral capsule every morning, 0.75 or 0.375 micromoles/kg. The assay is classed as in vivo. As for the experimental part:
• 1) The required number of subjects are properly screened to fulfill the necessary qualifications, • 2) appropriate laboratory evaluation are performed, • 3) various aspects of positive drug response in a manner acceptable for drug approval are recorded, • 4) adverse drug effects are documented, and • 5) patients are adequately followed-up.
In this random, double-blind, placebo controlled study, subjects are selected to one of three groups and take a capsule orally every morning containing one of the following: a) sunflower oil (placebo), b) estrone eicosenoate dissolved in sunflower oil at a dose of 0.75 micromoles/kg, or c) estrone eicosenoate dissolved in sunflower oil at a dose of to 0.375 micromoles/kg.
Subjects report weekly for measurements and assessment of any side effects. […]
Different tests are performed at least five different times during each study, namely at the screening of potential participants, at the beginning of the study, weekly during the trials, at the end of the first 4 week period and at the end of the second 4 week treatment period. • 1) SCREENING: Subjects are screened to exclude hypothyroidism, pregnancy, and heart disease. […] Subjects selected to participate in the studies have the following initial measurements: WEIGHT, WAIST to HIP RATIO, HEIGHT, BMI (calculated), BODY FAT % & TOTAL BODY FAT (via bioelectrical impedance method). […]

For `CCCCCCCC/C=C\CCCCCCCC(=O)Oc1cc2c(cc1O)[C@H]1CC[C@]3(C)C(=O)CC[C@H]3[C@@H]1CC2` [2HOE, 2 hydroxyestrone oleate], in assay [1], the “body weight &/or body fat” value is listed as “reduction of body weight &/or body fat” and the food consumption entry is reported as “reduction in food consumption”.
As to `CCCCCCCC/C=C\CCCCCCCCCC(=O)Oc1ccc2c(c1)CC[C@@H]1[C@@H]2CC[C@]2(C)C(=O)CC[C@@H]12` [EE, estrone eicosenoate], in assay [2], the appetite result is “reduces appetite” and the “weight loss, loss of body fat, and/or decrease of body fat%” value is “produces weight loss”.
